Measurements taken from patent US8207172B2 (Bayer Intellectual Property GmbH, priority 2004, dated 2012).

What was measured:
[1] = test system: BT474 (human breast carcinoma); assay: In vitro tumor cell proliferation assay (Cell Titer-Glo luminescent cell viability), BT474; format: cell-based; conditions: BT-474, 72 h, BT474 cells, 72 hours of drug exposure, ATP luminescence readout, read-out: IC50, anti-proliferative activity (inhibition of cell proliferation)
Source text: In vitro Tumor Cell Proliferation Assay
The tumor cell proliferation assay used to test the compounds of the present invention involves a readout called Cell Titer-Glow® Luminescent Cell Viability Assay developed by Promega® (Cunningham, B A “A Growing Issue: Cell Proliferation Assays, Modern kits ease quantification of cell growth” The Scientist 2001, 15(13), 26, and Crouch, S P et al., “The use of ATP bioluminescence as a measure of cell proliferation and cytotoxicity” Journal of Immunological Methods 1993, 160, 81-88), that measures inhibition of cell proliferation. Generation of a luminescent signal corresponds to the amount of ATP present, which is directly proportional to the number of metabolically active (proliferating) cells.
A431cells (human epidermoid carcinoma, ATCC […]) and BT474 (human breast carcinoma, ATCC […]) were plated at a density of 2.5×10^3 cells/well in 96 well black-clear bottom tissue culture plates in RPMI media with 10% Fetal Bovine Serum and incubated at 37° C. Twenty-four hours later, test compounds are added at a final concentration range from as high […] to as low 64 pM depend on the activities of the tested compounds in serial dilutions at a final DMSO concentration of 0.1%. Cells were incubated for 72 hours at 37° C. in complete growth media after addition of the test compound. After 72 hours of drug exposure, the plates were equilibrated to room temperature for approximately 30 min. Then, using a Promega Cell Titer Glo Luminescent® assay kit, lysis buffer containing 100 microliters of the enzyme luciferase and its substrate, luciferin mixture, was added to each well. The plates were mixed for 2 min on orbital shaker to ensure cell lysis and incubated for 10 min at room temperature to stabilize luminescence signal. The samples were read on VICTOR 2 using Luminescence protocol, and analyzed with Analyze5 software to generate IC50 values.

[2] = test system: A431 cells (human epidermoid carcinoma); assay: In vitro tumor cell proliferation assay (Cell Titer-Glo luminescent cell viability), A431; format: cell-based; conditions: A-431, 72 h, 72 hours of drug exposure, ATP luminescence readout, read-out: IC50, anti-proliferative activity (inhibition of cell proliferation)
Procedure, shortened: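 A431 or BT474 cells were exposed 72 h at 37°C to serially diluted compounds (final 100 μM down to 64 pM, 0.1% DMSO). Viable cells were read by ATP luminescence (CellTiter-Glo) and IC50 values derived.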

Row | IC50 [1] [µM] | IC50 [2] [µM] | Compound
1 | ≤ 5 | ≤ 5 | O[C@@H]1CCN(CCn2cc3c(n2)CCc2c-3sc3ncnc(Nc4ccc(F)c(Cl)c4)c23)C1 [Example 33, (3R)-1-(2-{6-[(3-chloro-4-fluorophenyl)amino]-4,5-dihydro-2H-pyrimido[5′,4′:4,5]thieno[2,3-e]indazol-2-yl}ethyl)-pyrrolidin-3-ol]
2 | ≤ 5 | ≤ 5 | COC(=O)[C@@H]1CCCN1CCn1cc2c(n1)CCc1c-2sc2ncnc(Nc3ccc(F)c(Cl)c3)c12 [Example 34, methyl 1-(2-{6-[(3-chloro-4-fluorophenyl)amino]-4,5-dihydro-2H-pyrimido[5′,4′:4,5]thieno[2,3-e]indazol-2-yl}ethyl)-L-prolinate]
3 | ≤ 5 | ≤ 5 | Fc1ccc(Nc2ncnc3sc4c(c23)CCc2nn(CCN3CCSCC3)cc2-4)cc1Cl [Example 35, N-(3-chloro-4-fluorophenyl)-2-(2-thiomorpholin-4-ylethyl)-4,5-dihydro-2H-pyrimido[5′,4′:4,5]thieno[2,3-e]indazol-6-amine]
4 | ≤ 5 | ≤ 5 | CCN1CCN(CCn2cc3c(n2)CCc2c-3sc3ncnc(Nc4ccc(F)c(Cl)c4)c23)CC1 [Example 36, N-(3-chloro-4-fluorophenyl)-2-[2-(4-ethylpiperazin-1-yl)ethyl]-4,5-dihydro-2H-pyrimido[5′,4′:4,5]thieno[2,3-e]indazol-6-amine]
5 | ≤ 5 | ≤ 5 | Cc1nccn1CCn1cc2c(n1)CCc1c-2sc2ncnc(Nc3ccc(F)c(Cl)c3)c12 [Example 37, N-(3-chloro-4-fluorophenyl)-2-[2-(2-methyl-1H-imidazol-1-yl)ethyl]-4,5-dihydro-2H-pyrimido[5′,4′:4,5]thieno[2,3-e]indazol-6-amine]
6 | ≤ 5 | ≤ 5 | CCc1nccn1CCn1cc2c(n1)CCc1c-2sc2ncnc(Nc3ccc(F)c(Cl)c3)c12 [Example 38, N-(3-chloro-4-fluorophenyl)-2-[2-(2-ethyl-1H-imidazol-1-yl)ethyl]-4,5-dihydro-2H-pyrimido[5′,4′:4,5]thieno[2,3-e]indazol-6-amine]
7 | ≤ 1 | ≤ 50 | CN1CCN(CCn2cc3c(n2)CCc2c-3sc3ncnc(Nc4ccc5c(cnn5Cc5ccccc5)c4)c23)CC1 [Example 39, N-(1-benzyl-1H-indazol-5-yl)-2-[2 (4-methylpiperazin-1-yl)ethyl]-4,5-dihydro-2H-pyrimido[5′,4′:4,5]thieno[2,3-e]indazol-6-amine]
8 | ≤ 5 | ≤ 5 | Fc1ccc(Nc2ncnc3sc4c(c23)CCc2n[nH]cc2-4)cc1Cl [Example 40, N-(3-chloro-4-fluorophenyl)-4,5-dihydro-2H-pyrimido[5′,4′:4,5]thieno[2,3-e]indazol-6-amine]
9 | ≤ 5 | ≤ 5 | CCCc1nccn1CCn1cc2c(n1)CCc1c-2sc2ncnc(Nc3ccc(F)c(Cl)c3)c12 [Example 41, N-(3-chloro-4-fluorophenyl)-2-[2-(2-propyl-1H-imidazol-1-yl)ethyl]-4,5-dihydro-2H-pyrimido[5′,4′:4,5]thieno[2,3-e]indazol-6-amine]
10 | ≤ 5 | ≤ 5 | CC(C)c1nccn1CCn1cc2c(n1)CCc1c-2sc2ncnc(Nc3ccc(F)c(Cl)c3)c12 [Example 42, N-(3-chloro-4-fluorophenyl)-2-[2-(2-isopropyl-1H-imidazol-1-yl)ethyl]-4,5-dihydro-2H-pyrimido[5′,4′:4,5]thieno[2,3-e]indazol-6-amine]
11 | ≤ 1 | ≤ 5 | OC[C@H](O)Cn1cc2c(n1)CCc1c-2sc2ncnc(Nc3ccc(F)c(Cl)c3)c12 [Example 44, (R)-3-[6-(3-Chloro-4-fluoro-phenylamino)-4,5-dihydro-10-thia-2,3,7,9-tetraaza-cyclopenta[a]fluoren-2-yl}-propane-1,2-diol]
12 | ≤ 1 | ≤ 5 | CN1CCN(CCn2cc3c(n2)CCc2c-3sc3ncnc(Nc4ccc(Cl)c(Cl)c4)c23)CC1 [Example 45, N-(3,4-dichlorophenyl)-2-[2-(4-methylpiperazin-1-yl)ethyl]-4,5-dihydro-2H-pyrimido[5′,4′:4,5]thieno[2,3-e]indazol-6-amine]
13 | ≤ 5 | ≤ 50 | CN1CCN(CCn2cc3c(n2)CCc2c-3sc3ncnc(Nc4ccc(O)c(Cl)c4)c23)CC1 [Example 46, 2-chloro-4-({2-[2-(4-methylpiperazin-1-yl)ethyl]-4,5-dihydro-2H-pyrimido[5′,4′:4,5]thieno[2,3-e]indazol-6-yl}amino)phenol]
14 | ≤ 5 | ≤ 50 | CN1CCN(CCn2cc3c(n2)CCc2c-3sc3ncnc(Nc4ccc(N5CCOCC5)c(Cl)c4)c23)CC1 [Example 48, N-(3-chloro-4-morpholin-4-ylphenyl)-2-[2-(4-methylpiperazin-1-yl)ethyl]-4,5-dihydro-2H-pyrimido[5′,4′:4,5]thieno[2,3-e]indazol-6-amine]
15 | ≤ 1 | ≤ 5 | Cc1ccc(Oc2ccc(Nc3ncnc4sc5c(c34)CCc3nn(CCN4CCN(C)CC4)cc3-5)cc2C)cn1 [Example 49, N-{3-methyl-4-[(6-methylpyridin-3-yl)oxy]phenyl}-2-[2-(4-methylpiperazin-1-yl)ethyl]-4,5-dihydro-2H-pyrimido[5′,4′:4,5]thieno[2,3-e]indazol-6-amine]
16 | ≤ 5 | ≤ 5 | CN1CCN(CCn2cc3c(n2)CCc2c-3sc3ncnc(Nc4ccc(Br)c(Cl)c4)c23)CC1 [Example 50, N-(4-bromo-3-chlorophenyl)-2-[2-(4-methylpiperazin-1-yl)ethyl]-4,5-dihydro-2H-pyrimido[5′,4′:4,5]thieno[2,3-e]indazol-6-amine]
17 | ≤ 50 | ≤ 5 | C#Cc1cccc(Nc2ncnc3sc4c(c23)CCc2nn(CCN3CCN(C)CC3)cc2-4)c1 [Example 51, N-(3-ethynylphenyl)-2-[2-(4-methylpiperazin-1-yl)ethyl]-4,5-dihydro-2H-pyrimido[5′,4′:4,5]thieno[2,3-e]indazol-6-amine]
18 | ≤ 5 | ≤ 50 | COc1ccc(Nc2ncnc3sc4c(c23)CCc2nn(CCN3CCN(C)CC3)cc2-4)cc1Cl [Example 52, N-(3-chloro-4-methoxyphenyl)-2-[2-(4-methylpiperazin-1-yl)ethyl]-4,5-dihydro-2H-pyrimido[5′,4′:4,5]thieno[2,3-e]indazol-6-amine]
19 | ≤ 1 | ≤ 5 | CN1CCN(CCn2cc3c(n2)CCc2c-3sc3ncnc(Nc4ccc(OC(F)(F)F)c(Cl)c4)c23)CC1 [Example 53, N-[3-chloro-4-(trifluoromethoxy)phenyl]-2-[2-(4-methylpiperazin-1-yl)ethyl]-4,5-dihydro-2H-pyrimido[5′,4′:4,5]thieno[2,3-e]indazol-6-amine]
20 | ≤ 1 | ≤ 5 | CN1CCN(CCn2cc3c(n2)CCc2c-3sc3ncnc(Nc4ccc(OCc5ccccc5)c(Cl)c4)c23)CC1 [Example 54, N-[4-(benzyloxy)-3-chlorophenyl]-2-[2-(4-methylpiperazin-1-yl)ethyl]-4,5-dihydro-2H-pyrimido[5′,4′:4,5]thieno[2,3-e]indazol-6-amine]
21 | ≤ 1 | ≤ 5 | OCCn1cc2c(n1)CCc1c-2sc2ncnc(Nc3ccc(OCc4cccc(F)c4)c(Cl)c3)c12 [Example 56, 2-[6-({3-chloro-4-[(3-fluorobenzyl)oxy]phenyl}amino)-4,5-dihydro-2H-pyrimido[5′,4′:4,5]thieno[2,3-e]indazol-2-yl]ethanol]
22 | ≤ 1 | ≤ 5 | CS(=O)(=O)OCCn1cc2c(n1)CCc1c-2sc2ncnc(Nc3ccc(OCc4cccc(F)c4)c(Cl)c3)c12 [Example 57, 2-[6-({3-chloro-4-[(3-fluorobenzyl)oxy]phenyl}amino)-4,5-dihydro-2H-pyrimido[5′,4′:4,5]thieno[2,3-e]indazol-2-yl]ethyl methanesulfonate]
23 | ≤ 1 | ≤ 5 | CN(C)[C@H]1CCN(CCn2cc3c(n2)CCc2c-3sc3ncnc(Nc4ccc(OCc5cccc(F)c5)c(Cl)c4)c23)C1 [Example 58, N-{3-chloro-4-[(3-fluorobenzyl)oxy]phenyl}-2-{2-[(3S)-3-(dimethylamino)pyrrolidin 1-yl]ethyl}-4,5-dihydro-2H-pyrimido[5′,4′:4,5]thieno[2,3-e]indazol-6-amine]

Row | Compound | IC50 [1] [µM] | IC50 [2] [µM]
24 | CC(C)(C)[Si](C)(C)OCCn1cc2c(n1)CCc1c-2sc2ncnc(Nc3ccc(OCc4cccc(F)c4)c(Cl)c3)c12 [Example 55, 2-(2-{[tert-butyl(dimethyl)silyl]oxy}ethyl)N-{3-chloro-4-[(3-fluorobenzyl)oxy]phenyl}-4,5-dihydro-2H-pyrimido[5′,4′:4,5]thieno[2,3-e]indazol-6-amine] | ≤ 5 | ≤ 50
